Results on three molecules are retold here after ChEMBL document CHEMBL5465560, “Selectivity Literature for EUbOPEN Chemogenomic Library” (2024).

The target in assay [1] is T1, Tyrosine-protein kinase Mer (Homo sapiens) (UniProt Q12866).
T1 sequence (whole entry): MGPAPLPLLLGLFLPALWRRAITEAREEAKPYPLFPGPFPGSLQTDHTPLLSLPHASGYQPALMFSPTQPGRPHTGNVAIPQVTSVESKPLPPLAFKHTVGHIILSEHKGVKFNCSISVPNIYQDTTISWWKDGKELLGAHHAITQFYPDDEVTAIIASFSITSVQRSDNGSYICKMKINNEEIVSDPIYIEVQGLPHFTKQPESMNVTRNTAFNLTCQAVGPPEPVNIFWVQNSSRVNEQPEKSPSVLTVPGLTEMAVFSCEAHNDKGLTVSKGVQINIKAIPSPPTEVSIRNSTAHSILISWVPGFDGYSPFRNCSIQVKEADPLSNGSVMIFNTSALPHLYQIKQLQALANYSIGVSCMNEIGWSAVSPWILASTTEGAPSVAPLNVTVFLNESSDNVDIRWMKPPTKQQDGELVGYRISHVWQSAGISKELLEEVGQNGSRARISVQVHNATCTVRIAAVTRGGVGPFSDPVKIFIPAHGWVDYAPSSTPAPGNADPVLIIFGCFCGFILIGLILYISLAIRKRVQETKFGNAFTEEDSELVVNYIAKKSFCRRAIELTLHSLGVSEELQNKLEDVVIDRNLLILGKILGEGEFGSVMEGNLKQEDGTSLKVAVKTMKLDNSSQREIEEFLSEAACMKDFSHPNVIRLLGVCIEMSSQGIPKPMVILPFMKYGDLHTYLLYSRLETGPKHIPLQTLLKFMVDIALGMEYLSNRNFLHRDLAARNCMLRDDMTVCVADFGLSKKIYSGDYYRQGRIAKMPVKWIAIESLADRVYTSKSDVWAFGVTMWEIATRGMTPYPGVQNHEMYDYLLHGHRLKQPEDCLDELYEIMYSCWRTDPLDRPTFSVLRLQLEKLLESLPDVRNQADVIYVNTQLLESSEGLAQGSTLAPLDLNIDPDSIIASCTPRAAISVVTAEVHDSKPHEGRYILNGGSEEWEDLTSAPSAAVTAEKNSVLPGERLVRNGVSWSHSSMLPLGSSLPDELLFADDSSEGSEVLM
Description: Selectivity interaction (KinomeScan (DiscoverX)) EUB0001079a MERTK. To be noted: at 1 µM.

The target of assay [2] is T2, Serine/threonine-protein kinase LATS2 (Homo sapiens) (UniProt Q9NRM7).
T2 sequence (whole entry): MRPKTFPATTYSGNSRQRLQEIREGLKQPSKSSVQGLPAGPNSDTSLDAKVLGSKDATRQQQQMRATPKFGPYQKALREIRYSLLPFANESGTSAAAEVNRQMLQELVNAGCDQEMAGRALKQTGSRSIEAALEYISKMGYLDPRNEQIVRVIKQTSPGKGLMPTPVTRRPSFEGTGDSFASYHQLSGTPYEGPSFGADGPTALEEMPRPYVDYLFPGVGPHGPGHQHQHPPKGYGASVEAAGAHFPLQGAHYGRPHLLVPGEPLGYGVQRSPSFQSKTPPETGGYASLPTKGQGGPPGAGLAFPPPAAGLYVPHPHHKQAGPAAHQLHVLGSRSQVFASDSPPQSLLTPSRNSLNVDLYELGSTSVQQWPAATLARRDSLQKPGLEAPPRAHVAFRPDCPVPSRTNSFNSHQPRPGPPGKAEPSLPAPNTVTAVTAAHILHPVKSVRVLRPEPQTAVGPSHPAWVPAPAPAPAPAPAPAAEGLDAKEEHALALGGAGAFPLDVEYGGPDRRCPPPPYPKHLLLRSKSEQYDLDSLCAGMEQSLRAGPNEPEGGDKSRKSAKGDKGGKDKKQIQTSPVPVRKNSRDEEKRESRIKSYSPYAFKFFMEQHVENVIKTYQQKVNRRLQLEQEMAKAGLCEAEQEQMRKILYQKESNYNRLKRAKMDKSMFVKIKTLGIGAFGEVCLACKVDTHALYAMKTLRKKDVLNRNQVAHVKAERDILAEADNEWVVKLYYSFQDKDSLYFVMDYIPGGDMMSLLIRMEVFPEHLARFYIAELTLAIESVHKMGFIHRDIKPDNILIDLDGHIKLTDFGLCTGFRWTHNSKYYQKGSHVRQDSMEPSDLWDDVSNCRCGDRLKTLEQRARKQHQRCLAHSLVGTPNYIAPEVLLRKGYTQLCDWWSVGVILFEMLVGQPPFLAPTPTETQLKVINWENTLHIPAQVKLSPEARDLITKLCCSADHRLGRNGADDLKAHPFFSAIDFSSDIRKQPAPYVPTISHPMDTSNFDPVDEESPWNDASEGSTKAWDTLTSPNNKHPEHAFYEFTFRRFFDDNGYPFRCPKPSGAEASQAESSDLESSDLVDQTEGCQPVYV
Description: Selectivity interaction (LanthaScreen Eu Kinase Binding Assay) EUB0001632a LATS2. Particulars: at 10 µM. For orientation: Time-resolved FRET reads energy transfer from a long-lived donor to a nearby acceptor.

For assay [3], the target named is T3, Homeodomain-interacting protein kinase 4 (Homo sapiens) (UniProt Q8NE63).
T3 sequence (whole entry): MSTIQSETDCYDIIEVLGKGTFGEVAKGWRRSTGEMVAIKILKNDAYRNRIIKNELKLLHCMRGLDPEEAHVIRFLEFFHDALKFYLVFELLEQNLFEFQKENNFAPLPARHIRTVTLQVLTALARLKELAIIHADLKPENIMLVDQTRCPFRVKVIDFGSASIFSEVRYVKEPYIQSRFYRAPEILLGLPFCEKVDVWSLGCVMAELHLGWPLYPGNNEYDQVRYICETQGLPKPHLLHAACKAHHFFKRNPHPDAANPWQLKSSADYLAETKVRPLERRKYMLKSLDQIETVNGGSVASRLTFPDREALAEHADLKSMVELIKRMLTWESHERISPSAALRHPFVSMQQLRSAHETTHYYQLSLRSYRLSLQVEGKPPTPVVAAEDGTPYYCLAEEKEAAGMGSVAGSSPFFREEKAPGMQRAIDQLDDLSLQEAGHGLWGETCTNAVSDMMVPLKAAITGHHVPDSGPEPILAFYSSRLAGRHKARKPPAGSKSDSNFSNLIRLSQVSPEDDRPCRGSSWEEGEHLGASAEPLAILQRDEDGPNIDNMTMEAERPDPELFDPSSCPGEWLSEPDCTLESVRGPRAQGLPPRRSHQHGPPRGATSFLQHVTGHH
Put plainly: Selectivity interaction (KinomeScan (DiscoverX)) EUB0000229b HIPK4. To be noted: at 10 µM.

`Nc1cnc(N2CCc3cc(S(=O)(=O)Nc4c(F)cc(Cl)cc4F)cc(N4CCCC4=O)c32)nc1` [TP-020n]: the % of control in assay [1] was 100%.
Regarding `Cn1cc(-n2cnc3c(NCc4nc5cc(Cl)c(Cl)cc5[nH]4)nc(N4CCOCC4)nc32)cn1`, the % of inhibition in assay [2] stood at 1.75%.
As for `COc1cc(N(C)c2ccnc3ccc(C(F)(F)F)cc23)cc(OC)c1OC`, in assay [3], the % binding worked out at 100%.
